Reference: patent publication US20240246942A1, “KINASE INHIBITORS FOR THE TREATMENT OF NEURODEGENERATIVE DISEASES” (priority 2020, published 2024)

Columns and labels:
Assay in all cases: biochemical
[1] = target: T1, panel of 374 wild-type kinases (Homo sapiens, UniProt P54762); details: read-out: % Enzyme Activity (relative to DMSO controls), EPHB1
T1 construct: purchased Reaction Biology Corporation
T1 sequence (P54762 18-984): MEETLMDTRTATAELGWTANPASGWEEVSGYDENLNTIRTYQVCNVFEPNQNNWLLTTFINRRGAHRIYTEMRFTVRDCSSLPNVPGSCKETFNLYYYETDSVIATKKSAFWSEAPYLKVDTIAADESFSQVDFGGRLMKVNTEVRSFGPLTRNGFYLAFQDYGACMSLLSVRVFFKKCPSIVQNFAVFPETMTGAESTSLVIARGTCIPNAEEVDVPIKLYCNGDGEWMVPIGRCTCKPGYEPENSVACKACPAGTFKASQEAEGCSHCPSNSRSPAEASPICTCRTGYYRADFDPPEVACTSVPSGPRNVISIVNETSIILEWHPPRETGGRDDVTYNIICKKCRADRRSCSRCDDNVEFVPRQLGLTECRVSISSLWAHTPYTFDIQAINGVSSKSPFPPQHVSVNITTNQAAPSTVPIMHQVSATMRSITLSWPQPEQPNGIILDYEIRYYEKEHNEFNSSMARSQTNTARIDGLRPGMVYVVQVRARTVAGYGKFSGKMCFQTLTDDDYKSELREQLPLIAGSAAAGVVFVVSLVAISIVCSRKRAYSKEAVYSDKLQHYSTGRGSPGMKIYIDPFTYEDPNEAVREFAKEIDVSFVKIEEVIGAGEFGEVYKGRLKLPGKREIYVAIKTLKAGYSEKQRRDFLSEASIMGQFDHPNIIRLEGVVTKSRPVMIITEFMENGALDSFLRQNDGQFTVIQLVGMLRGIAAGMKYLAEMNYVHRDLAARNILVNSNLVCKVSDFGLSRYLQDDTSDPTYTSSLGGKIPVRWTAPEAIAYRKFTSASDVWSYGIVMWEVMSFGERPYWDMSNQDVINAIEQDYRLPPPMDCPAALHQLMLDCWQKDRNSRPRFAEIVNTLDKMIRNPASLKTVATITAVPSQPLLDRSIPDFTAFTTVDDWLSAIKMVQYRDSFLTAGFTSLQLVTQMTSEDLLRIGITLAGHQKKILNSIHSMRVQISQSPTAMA

[2] = target: T2, panel of 374 wild-type kinases (Homo sapiens, UniProt Q9UKE5); details: read-out: % Enzyme Activity (relative to DMSO controls), kinase TNIK
T2 construct: purchased Reaction Biology Corporation
T2 sequence (Q9UKE5 whole entry): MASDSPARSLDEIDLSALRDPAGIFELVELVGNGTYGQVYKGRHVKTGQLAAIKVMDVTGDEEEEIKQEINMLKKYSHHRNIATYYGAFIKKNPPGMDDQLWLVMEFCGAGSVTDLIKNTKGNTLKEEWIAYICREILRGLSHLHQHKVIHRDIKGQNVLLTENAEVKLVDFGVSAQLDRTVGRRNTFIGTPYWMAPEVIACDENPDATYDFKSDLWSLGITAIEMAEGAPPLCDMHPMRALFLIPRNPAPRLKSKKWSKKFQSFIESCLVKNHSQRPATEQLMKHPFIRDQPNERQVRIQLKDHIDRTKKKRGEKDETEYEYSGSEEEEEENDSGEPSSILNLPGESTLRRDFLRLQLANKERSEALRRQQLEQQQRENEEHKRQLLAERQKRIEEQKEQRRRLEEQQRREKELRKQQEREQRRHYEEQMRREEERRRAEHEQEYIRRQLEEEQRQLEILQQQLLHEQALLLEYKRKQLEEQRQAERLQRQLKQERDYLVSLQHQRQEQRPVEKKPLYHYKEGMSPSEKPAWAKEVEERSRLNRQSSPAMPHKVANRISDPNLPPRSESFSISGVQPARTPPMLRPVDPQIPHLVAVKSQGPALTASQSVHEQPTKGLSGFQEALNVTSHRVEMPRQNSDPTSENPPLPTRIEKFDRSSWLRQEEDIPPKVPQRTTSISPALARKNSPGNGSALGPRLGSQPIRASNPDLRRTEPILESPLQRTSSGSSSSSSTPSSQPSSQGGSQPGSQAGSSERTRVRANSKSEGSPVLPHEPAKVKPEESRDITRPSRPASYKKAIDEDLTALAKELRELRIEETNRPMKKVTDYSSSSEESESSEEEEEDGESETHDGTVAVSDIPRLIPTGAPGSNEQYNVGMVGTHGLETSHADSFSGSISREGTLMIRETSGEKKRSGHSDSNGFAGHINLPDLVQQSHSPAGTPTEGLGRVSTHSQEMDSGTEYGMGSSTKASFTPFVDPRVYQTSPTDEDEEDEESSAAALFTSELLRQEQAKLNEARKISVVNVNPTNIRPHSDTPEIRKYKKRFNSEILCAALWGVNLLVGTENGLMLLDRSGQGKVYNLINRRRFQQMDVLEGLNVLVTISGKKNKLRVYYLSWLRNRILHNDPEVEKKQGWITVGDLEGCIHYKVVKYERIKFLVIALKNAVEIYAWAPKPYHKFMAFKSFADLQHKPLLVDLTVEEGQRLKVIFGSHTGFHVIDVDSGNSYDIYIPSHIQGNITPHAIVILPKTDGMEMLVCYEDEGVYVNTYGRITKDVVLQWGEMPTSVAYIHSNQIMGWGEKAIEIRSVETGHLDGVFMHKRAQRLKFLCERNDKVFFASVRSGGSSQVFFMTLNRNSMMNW

[3] = target: T3, panel of 374 wild-type kinases (Homo sapiens, UniProt Q9UBS0); details: read-out: % Enzyme Activity (relative to DMSO controls), kinase p70S6Kb/RPS6KB2
T3 construct: purchased Reaction Biology Corporation

[4] = target: T4, panel of 374 wild-type kinases (Homo sapiens, UniProt Q9Y6E0); details: read-out: % Enzyme Activity (relative to DMSO controls), MST3/STK24
T4 construct: purchased Reaction Biology Corporation

[5] = target: T5, panel of 374 wild-type kinases (Homo sapiens, UniProt O94806); details: read-out: % Enzyme Activity (relative to DMSO controls), kinase PKCnu/PRKD3
T5 construct: purchased Reaction Biology Corporation
T5 sequence (O94806 1-890): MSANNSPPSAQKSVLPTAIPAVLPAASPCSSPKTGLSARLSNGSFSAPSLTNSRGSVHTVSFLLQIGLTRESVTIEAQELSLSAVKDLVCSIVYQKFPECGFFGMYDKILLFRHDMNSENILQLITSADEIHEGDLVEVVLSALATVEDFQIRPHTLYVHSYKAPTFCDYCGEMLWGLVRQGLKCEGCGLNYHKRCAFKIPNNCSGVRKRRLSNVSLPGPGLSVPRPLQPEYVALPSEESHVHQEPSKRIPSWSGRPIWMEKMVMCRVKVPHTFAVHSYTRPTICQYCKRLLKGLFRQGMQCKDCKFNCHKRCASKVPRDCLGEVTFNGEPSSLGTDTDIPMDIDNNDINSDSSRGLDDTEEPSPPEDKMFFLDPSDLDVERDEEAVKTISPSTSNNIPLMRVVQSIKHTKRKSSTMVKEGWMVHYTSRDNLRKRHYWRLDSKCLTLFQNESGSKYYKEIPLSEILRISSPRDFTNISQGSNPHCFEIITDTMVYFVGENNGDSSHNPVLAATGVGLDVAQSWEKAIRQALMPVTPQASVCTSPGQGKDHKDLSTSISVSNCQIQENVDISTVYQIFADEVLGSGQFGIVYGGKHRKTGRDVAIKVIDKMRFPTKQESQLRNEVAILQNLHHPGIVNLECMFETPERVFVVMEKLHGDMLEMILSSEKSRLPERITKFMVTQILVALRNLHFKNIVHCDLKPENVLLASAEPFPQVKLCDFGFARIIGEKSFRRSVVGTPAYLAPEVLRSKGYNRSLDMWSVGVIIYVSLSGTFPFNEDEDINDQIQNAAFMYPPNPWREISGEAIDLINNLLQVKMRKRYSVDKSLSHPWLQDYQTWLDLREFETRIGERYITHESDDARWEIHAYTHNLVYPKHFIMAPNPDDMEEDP

[6] = target: T6, panel of 374 wild-type kinases (Homo sapiens, UniProt Q9BYP7); details: read-out: % Enzyme Activity (relative to DMSO controls), kinase WNK3
T6 construct: purchased Reaction Biology Corporation
T6 sequence (Q9BYP7 whole entry): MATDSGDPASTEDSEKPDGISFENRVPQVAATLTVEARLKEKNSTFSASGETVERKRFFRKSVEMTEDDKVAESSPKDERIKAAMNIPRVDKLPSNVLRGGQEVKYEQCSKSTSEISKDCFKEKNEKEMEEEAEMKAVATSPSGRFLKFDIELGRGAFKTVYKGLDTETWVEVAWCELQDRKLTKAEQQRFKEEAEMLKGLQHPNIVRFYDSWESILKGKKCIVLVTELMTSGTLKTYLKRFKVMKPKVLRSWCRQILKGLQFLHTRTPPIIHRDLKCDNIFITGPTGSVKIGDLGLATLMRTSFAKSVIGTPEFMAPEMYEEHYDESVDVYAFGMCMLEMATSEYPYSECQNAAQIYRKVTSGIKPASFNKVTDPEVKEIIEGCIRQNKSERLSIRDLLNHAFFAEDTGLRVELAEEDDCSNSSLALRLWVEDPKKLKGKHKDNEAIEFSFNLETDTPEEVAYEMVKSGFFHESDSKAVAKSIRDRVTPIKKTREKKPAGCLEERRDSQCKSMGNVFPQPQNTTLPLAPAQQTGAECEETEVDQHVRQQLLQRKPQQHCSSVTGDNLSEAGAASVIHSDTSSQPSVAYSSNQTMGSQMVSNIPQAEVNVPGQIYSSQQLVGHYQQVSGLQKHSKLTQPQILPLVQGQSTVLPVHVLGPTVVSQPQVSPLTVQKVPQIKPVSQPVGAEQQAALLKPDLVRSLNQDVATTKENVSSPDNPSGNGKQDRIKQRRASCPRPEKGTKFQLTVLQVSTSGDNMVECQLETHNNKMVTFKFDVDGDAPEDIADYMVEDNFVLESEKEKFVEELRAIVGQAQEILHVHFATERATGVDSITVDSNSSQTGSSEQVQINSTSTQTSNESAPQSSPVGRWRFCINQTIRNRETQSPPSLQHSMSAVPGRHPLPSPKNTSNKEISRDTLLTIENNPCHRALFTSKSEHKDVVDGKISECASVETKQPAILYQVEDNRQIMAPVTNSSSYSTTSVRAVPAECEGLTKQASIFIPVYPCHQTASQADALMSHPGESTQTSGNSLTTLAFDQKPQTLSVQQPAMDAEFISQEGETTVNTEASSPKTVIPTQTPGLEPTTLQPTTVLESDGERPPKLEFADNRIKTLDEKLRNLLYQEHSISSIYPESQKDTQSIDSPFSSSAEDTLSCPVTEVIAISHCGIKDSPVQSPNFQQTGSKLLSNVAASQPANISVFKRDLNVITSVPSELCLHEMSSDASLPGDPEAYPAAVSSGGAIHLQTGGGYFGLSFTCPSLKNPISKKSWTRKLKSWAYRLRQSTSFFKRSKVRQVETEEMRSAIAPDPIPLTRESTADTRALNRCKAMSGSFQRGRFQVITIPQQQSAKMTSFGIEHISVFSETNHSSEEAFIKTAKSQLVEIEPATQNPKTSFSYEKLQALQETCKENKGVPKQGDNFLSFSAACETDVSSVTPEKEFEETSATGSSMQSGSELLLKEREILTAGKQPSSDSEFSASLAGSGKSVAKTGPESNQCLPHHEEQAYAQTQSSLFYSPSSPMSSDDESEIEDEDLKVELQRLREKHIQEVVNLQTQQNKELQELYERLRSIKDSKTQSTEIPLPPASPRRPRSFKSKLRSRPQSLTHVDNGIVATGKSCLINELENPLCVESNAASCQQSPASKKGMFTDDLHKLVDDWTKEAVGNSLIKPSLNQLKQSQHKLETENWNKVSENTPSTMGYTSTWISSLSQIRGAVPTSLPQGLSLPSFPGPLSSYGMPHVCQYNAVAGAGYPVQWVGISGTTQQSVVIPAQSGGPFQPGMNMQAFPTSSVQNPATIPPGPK

[7] = target: T7, panel of 374 wild-type kinases (Homo sapiens, UniProt Q9BXA7); details: read-out: % Enzyme Activity (relative to DMSO controls), kinase STK22D/TSSK1
T7 construct: purchased Reaction Biology Corporation
T7 sequence (Q9BXA7 1-367): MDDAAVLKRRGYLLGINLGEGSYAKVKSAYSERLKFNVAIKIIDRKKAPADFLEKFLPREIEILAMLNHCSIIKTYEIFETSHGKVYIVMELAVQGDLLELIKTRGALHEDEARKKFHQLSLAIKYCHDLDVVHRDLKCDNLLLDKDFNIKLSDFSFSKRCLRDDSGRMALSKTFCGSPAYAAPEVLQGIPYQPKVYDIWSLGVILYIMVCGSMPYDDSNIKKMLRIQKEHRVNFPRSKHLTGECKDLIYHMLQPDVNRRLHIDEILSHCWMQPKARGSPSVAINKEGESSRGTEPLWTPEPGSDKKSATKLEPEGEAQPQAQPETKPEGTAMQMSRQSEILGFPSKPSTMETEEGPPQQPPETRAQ

[8] = target: T8, panel of 374 wild-type kinases (Homo sapiens, UniProt P07333); details: read-out: % Enzyme Activity (relative to DMSO controls), FMS
T8 construct: purchased Reaction Biology Corporation
T8 sequence (P07333 20-972): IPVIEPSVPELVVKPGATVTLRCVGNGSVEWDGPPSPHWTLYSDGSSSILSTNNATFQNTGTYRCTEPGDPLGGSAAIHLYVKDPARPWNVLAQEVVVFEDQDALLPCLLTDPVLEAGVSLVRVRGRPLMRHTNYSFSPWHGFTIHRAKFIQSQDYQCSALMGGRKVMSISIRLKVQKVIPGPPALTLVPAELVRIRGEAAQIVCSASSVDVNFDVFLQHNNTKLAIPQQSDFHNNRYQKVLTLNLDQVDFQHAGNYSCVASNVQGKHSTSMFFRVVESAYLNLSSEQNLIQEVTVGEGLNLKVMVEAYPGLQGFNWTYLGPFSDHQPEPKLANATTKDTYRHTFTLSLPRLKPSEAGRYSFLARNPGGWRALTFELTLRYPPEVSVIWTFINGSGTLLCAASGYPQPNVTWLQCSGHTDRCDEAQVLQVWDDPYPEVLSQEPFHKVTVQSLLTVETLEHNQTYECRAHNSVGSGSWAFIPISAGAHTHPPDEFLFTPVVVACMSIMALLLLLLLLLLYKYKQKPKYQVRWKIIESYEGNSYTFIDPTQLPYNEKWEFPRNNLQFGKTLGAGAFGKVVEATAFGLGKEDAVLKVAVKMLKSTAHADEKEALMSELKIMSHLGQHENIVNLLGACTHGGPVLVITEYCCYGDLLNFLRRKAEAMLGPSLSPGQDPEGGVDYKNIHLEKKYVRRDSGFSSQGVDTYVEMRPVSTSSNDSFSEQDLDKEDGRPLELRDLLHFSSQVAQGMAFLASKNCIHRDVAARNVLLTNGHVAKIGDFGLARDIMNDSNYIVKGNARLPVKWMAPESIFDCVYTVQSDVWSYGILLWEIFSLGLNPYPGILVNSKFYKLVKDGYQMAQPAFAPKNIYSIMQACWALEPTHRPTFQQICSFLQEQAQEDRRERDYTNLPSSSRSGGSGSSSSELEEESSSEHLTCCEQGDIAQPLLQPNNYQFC

[9] = target: T9, panel of 374 wild-type kinases (Homo sapiens, UniProt P16591); details: read-out: % Enzyme Activity (relative to DMSO controls), FER
T9 construct: purchased Reaction Biology Corporation
T9 sequence (P16591 whole entry): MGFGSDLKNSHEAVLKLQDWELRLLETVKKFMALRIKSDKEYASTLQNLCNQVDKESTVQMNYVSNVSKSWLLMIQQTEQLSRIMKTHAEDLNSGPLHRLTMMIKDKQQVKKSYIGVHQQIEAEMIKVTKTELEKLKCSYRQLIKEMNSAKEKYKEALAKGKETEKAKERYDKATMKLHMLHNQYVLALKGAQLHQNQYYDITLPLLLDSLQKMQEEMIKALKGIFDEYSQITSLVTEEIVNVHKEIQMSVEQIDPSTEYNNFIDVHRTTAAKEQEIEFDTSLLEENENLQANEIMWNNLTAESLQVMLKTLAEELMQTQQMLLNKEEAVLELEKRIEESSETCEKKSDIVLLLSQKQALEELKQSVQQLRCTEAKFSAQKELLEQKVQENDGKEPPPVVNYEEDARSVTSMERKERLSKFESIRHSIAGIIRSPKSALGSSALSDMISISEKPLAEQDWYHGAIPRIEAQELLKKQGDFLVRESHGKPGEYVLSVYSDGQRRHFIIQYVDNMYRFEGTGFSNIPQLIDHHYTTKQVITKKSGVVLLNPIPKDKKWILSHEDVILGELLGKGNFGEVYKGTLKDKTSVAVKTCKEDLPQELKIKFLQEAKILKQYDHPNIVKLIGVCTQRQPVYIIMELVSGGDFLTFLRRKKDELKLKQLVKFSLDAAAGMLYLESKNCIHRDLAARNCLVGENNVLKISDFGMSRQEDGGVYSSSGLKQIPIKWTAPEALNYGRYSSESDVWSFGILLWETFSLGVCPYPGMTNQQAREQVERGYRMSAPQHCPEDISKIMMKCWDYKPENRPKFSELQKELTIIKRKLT

| SMILES | remaining activity at 5 µM [1] [%] | remaining activity at 5 µM [2] [%] | remaining activity at 5 µM [3] [%] | remaining activity at 5 µM [4] [%] | remaining activity at 5 µM [5] [%] | remaining activity at 5 µM [6] [%] | remaining activity at 5 µM [7] [%] | remaining activity at 5 µM [8] [%] | remaining activity at 5 µM [9] [%] | remaining activity at 10 µM ([1]; 10 uM) [%] | remaining activity at 10 µM ([2]; 10 uM) [%] | remaining activity at 10 µM ([3]; 10 uM) [%] | remaining activity at 10 µM ([4]; 10 uM) [%] | remaining activity at 10 µM ([5]; 10 uM) [%] | remaining activity at 10 µM ([6]; 10 uM) [%] | remaining activity at 10 µM ([7]; 10 uM) [%] | remaining activity at 10 µM ([8]; 10 uM) [%] | remaining activity at 10 µM ([9]; 10 uM) [%] |
| --- | --- | --- | --- | --- | --- | --- | --- | --- | --- | --- | --- | --- | --- | --- | --- | --- | --- | --- |
| O=C(Nc1cnn(-c2csc(C(=O)NC3COC3)c2)c1)Nc1c(F)cccc1Cl [Compound 25, 4-(4-(3-(2-chloro-6-fluorophenyl)ureido)-1H-pyrazol-1-yl)-N-(oxetan-3-yl)thiophene-2-carboxamide] | 96.1 | 84.3 | 101 | 81.6 | 105 | 91.8 | 107 | 98.9 | 89.8 |  |  |  |  |  |  |  |  |  |
| O=C(Nc1cnn(-c2csc(C(=O)NC3COC3)c2)c1)Nc1ccccc1Cl [Compound 17, 4-(4-(3-(2-chlorophenyl)ureido)-1H-pyrazol-1-yl)-N-(oxetan-3-yl)thiophene-2-carboxamide] | 100 | 53.2 | 94.2 | 113 | 104 | 99.5 | 102 | 105 | 101 |  |  |  |  |  |  |  |  |  |
| Cc1sc(C(=O)NC2COC2)cc1-n1cc(NC(=O)Nc2c(F)cccc2Cl)cn1 [Compound 27, 4-(4-(3-(2-chloro-6-fluorophenyl)ureido)-1H-pyrazol-1-yl)-5-methyl-N-(oxetan-3-yl)thiophene-2-carboxamide] |  |  |  |  |  |  |  |  |  | 100 | 94.5 | 98.9 | 67.3 | 105 | 102 | 103 | 103 | 90 |
